Experimental findings from patent US12084422B2, “Phenyl-n-quinoline derivatives for treating a RNA virus infection” (ABIVAX, priority 2018, dated 2024) are described below.

Experiment [1] relates to Chikungunya Virus (CHIKV) strain LR2006-OPY1 with GFP modification (CHIK 5'LR). Nature of the experiment: Inhibition of Chikungunya virus (CHIKV) production in infected HEK293T cell line (GFP fluorescence). Format: cell-based. As to conditions: HEK-293T, infected HEK293T cells; for inhibition at 1 µM: compounds at 1 μM, MOI 0.1, 22 h, values above 100 lowered to 100, read-out: % CHIKV Inhibition Mean (n = 2); for IC50: second round of experiments. Here is the method:
The ability of the compounds to inhibit viral replication was assessed with an experiment in which infected cells were treated by compounds of formula (I) at 1 μM. As a positive control for inhibition of Chikungunya, Ribavirin was used. Toxicity of the compounds was assessed in parallel.
Human embryonic kidney cells 293T (HEK293T, CRL-11268) were maintained in Dulbecco's modified Eagle's Medium (DMEM, 31966-021, Thermo Fisher Scientific) supplemented with 10% of fetal bovine serum (FBS), penicillin and streptomycin. After removal of the medium, cells were washed with a Ca^2+- and Mg^2+-free salt solution to remove all traces of serum. After aspiration of wash solution, cells were dissociated with 0.25% Trypsin-EDTA solution and incubated 30 s at least in 37° ° C. incubator. Concentration of cell suspension was determined by an automatic cell counter (EVE, NanoEntek) and, if needed, adjusted to 0.33×10^6 cells/mL with DMEM medium supplemented with 10% FBS.
100 μL of the cell suspension were dispatched in a ViewPlate-96 Black (6005182, PerkinElmer) and in a transparent 96-well cell culture plate (655180, Greiner bio-one). After an incubation for 24 h at 37° C. under 5% of CO2, compounds were added at the proper concentration.
An intermediate dilution was prepared with DMSO (D8418, Sigma) at 2 mM in a 96-well V-bottom microplate from the stock solution:
Mix 1 μL of the 50 mM stock library in 25 μL of DMSO.
Mix 2 μL of the 25 mM stock library in 25 μL of DMSO.
An intermediate dilution was prepared with DMSO (D8418, Sigma) at 25 mM in a 96-well V-bottom microplate from the stock solution:
Mix 2 μL of the 50 mM stock library in 2 μL of DMSO.
Serial dilutions were performed in 2 μL of DMSO 13 times to reach 0.0015 mM as follows in table III:
For both screen and determination of IC50 1 μL of each solution was added in a 1 mL Masterblock 96 wells (Greiner bio-one, 780261) containing 1 mL of DMEM medium. As a positive control, 5 μL of a 80 mM Ribavirin solution (R9644, Sigma) is added to 1 mL of DMEM. On the other hand, DMSO is used as a negative control.
[…]. Vector Borne Zoonotic Dis. 2006; 6(4)). This modified virus was used to infect cells at MOI 0.1. […].
Medium was removed after 22 h at 37° ° C. under 5% of CO2 and cells were washed as described above. 60 μL of RIPA buffer (50 mM Tris-HCl pH8, 100 mM NaCl, 1 mM MgCl2, 1% Triton X-100) was added to cells and incubated for at least 20 min before reading fluorescence signal. Pierce 660 nm Protein Assay Reagent (22660, Thermo scientific) was used to normalize fluorescence signal by protein quantity.
A first round of experiments has been performed wherein the results are expressed as inhibition percentage, which is calculated as follows, through the following steps:
1. Fluorescence intensity (FI) 509 nm/Absorbance 660 nm (A660)=A
This ratio allows considering the infection (GFP virus) to the protein amount.
2. A′=A—background noise of non-infected plate,
3. B=Fluorescence intensity (FI)/Absorbance 660 nm (A660) of infected but non treated plates,
4. C=A′/B which is then converted as the percentage of infection after treatment, compared to non-treated sample, and subsequently as the […]. For instance, a value of 100 in Table IV here below means that, after treatment, the signal attributed to GFP fluorescence is abolished, which is correlated to the absence of infection.
This value corresponds to the inhibition's percentage.
The following Table IV encompasses said C′ value for some compounds as calculated above with a mean of 2 experiments, and the corresponding standard deviation.
Some values were originally above 100. In these cases, the value has been lowered to 100. This means that some molecules also have an impact on the viability of the cells. In other words, the A value may be lower than the background noise.
Moreover, for each measure, the test was performed with Ribavirin as control. The value of the inhibition percentage was checked, giving 100%.

Another experiment has as its system DENV-2 strain 16681. The experiment is described as follows: Screening for DENV-2 inhibition using Viral ToxGlo assay in A549 cells. Type of experiment: cell-based, Dengue 2 virus. Particulars: Dengue virus, DENV2, A549, 120 h, read-out: % DENV-2 Inhibition Mean (n = 3). As to the method: Protocol for Screening Antiviral Compounds for DENV-2 Inhibition and Cytotoxicity Using Viral ToxGlo Assay
A549 cells were maintained in Dulbecco's Modified Eagle Medium (DMEM) supplemented with 10% fetal bovine serum, 100 U/ml penicillin and 100 μg/ml streptomycin. For the purposes of the screening assay they were grown to 90% confluency, trypsinized and recovered. The trypsin was neutralised with cell culture media and cells were centrifuged at 150×g for 5 minutes before discarding the supernatant and resuspending cell pellet in assay media (DMEM supplemented with 2% fetal bovine serum and 100 U/ml penicillin and 100 μg/ml streptomycin). The cells were seeded into 96-well white clear-bottomed cell culture plates at a density of 1.0×10^4 cells/well in 50 μl. For the media/background control column assay media only was added. Cell plates were placed in a humid chamber and incubated overnight at 37° C./5% CO2. After overnight incubation cells were checked for confluency and healthy appearance.
Test compounds were prepared at a final concentration of 10 μM, in a maximum DMSO concentration of 1% (final assay concentration maximal 0.1% DMSO) and added to the cell plates in volumes of 10 μl. For cell control and virus control wells the test article solvent only was added. As a positive inhibition control, 7-Deaza-2′-C-methyladenosine was added at 100 μM in 3 wells. Virus (DENV-2 strain 16681) or assay media for cytotoxicity test wells and media/cell control wells was added immediately after test articles at an MOI of 0.5, 40 for 96 well plates respectively. Virus suspension was prepared by thawing DENV-2 frozen stocks and diluting to the required concentration of plaque forming units in assay media.
Cell plates were further incubated inside a humid chamber for 5 days p.i at 37° C./5% CO2. After the incubation period cells were observed under the microscope to check for characteristic cytopathic effect in virus control wells and healthy cells in the cell control wells. After plates were adjusted to room temperature 20 μl Viral ToxGlo (Promega) was added to each well of the 96-well cell plates. Plates were incubated at room temperature for 5 minutes before measuring the luminescence on a spectrophotometer (Envision, PerkinElmer).
DENV-2 inhibition was calculated as percentage of cytopathic effect inhibition relative to the virus control and cytotoxicity as percentage of cell survival relative to cell control wells.

Turning to `CCc1cc(OC(F)(F)F)ccc1Nc1ccc2cccc(Cl)c2n1` [Compound 2, 8-chloro-N-(2-ethyl-4-(trifluoromethoxy)phenyl)quinolin-2-amine], in experiment [1], the inhibition – broadly, the relative decrease from the control value, in per cent – at 1 µM worked out at 100% and the half-maximal inhibitory concentration (IC50) (commonly the concentration needed to halve the response being measured) is 1 to 200 nM. In the case of `CC(C)Cc1cc(OC(F)(F)F)ccc1Nc1ccc2cccc(Cl)c2n1` [Compound 3, 8-chloro-N-(2-isobutyl-4-(trifluoromethoxy)phenyl)quinolin-2-amine], in experiment [1], the inhibition at 1 µM was 100%. With `FC(F)(F)Oc1ccc(Nc2ccc3cccc(Cl)c3n2)c(C2CC2)c1` [Compound 4, 8-chloro-N-(2-cyclopropyl-4-(trifluoromethoxy)phenyl)quinolin-2-amine], in experiment [1], the inhibition at 1 µM came to 100% and the IC50 fell in the range of 1 to 200 nM.

Consider `CCc1cc(OC(F)(F)F)cc(C)c1Nc1ccc2cccc(Cl)c2n1` [Compound 5, 8-chloro-N-(2-ethyl-6-methyl-4-(trifluoromethoxy)phenyl)quinolin-2-amine], for which the inhibition at 10 µM with DENV-2 strain 16681 was 156%.

Take `CCc1cc(OC(F)(F)F)ccc1Nc1ccc2ccccc2n1` [Compound 7, N-(2-ethyl-4-(trifluoromethoxy)phenyl)quinolin-2-amine]: the inhibition at 1 µM in experiment [1] was found to be 99%.

As for `FC(F)(F)Oc1ccc(Nc2ccc3ccccc3n2)c(C2CC2)c1` [Compound 8, N-(2-cyclopropyl-4-(trifluoromethoxy)phenyl)quinolin-2-amine], in experiment [1], the inhibition at 1 µM stood at 100%. Regarding `CCOc1ccc(Nc2ccc3cccc(Cl)c3n2)c(C)c1` [Compound 12, 8-chloro-N-(4-ethoxy-2-methylphenyl)quinolin-2-amine], the inhibition at 1 µM in experiment [1] was found to be 95%. Besides, in the experiment with DENV-2 strain 16681, the inhibition at 10 µM is 129%.

Consider `Cc1cc(OCCOC(F)(F)F)ccc1Nc1ccc2cccc(Cl)c2n1` [Compound 14, 8-chloro-N-(2-methyl-4-(2-(trifluoromethoxy)ethoxy)phenyl)quinolin-2-amine], for which, in experiment [1], the inhibition at 1 µM is 91%. On to `Cc1cc(OC2CCCC2)ccc1Nc1ccc2cccc(Cl)c2n1` [Compound 16, 8-chloro-N-(4-(cyclopentyloxy)-2-methylphenyl)quinolin-2-amine], for which, in experiment [1], the inhibition at 1 µM worked out at 98% and the IC50 lay in the range of 1 to 200 nM. For the same compound, in the experiment on DENV-2 strain 16681, the inhibition at 10 µM is 77%.

Take `Cc1cc(OC2CCCCC2)ccc1Nc1ccc2cccc(Cl)c2n1` [Compound 17, 8-chloro-N-(4-(cyclohexyloxy)-2-methylphenyl)quinolin-2-amine]: in experiment [1], the inhibition at 1 µM came to 100% and the concentration for half-maximal inhibition (IC50) lay in the range of 1 to 200 nM. For the compound `CC(C)Oc1ccc(Nc2ccc3cccc(Cl)c3n2)c(C2CC2)c1` [Compound 20, 8-chloro-N-(2-cyclopropyl-4-isopropoxyphenyl)quinolin-2-amine], in experiment [1], the inhibition at 1 µM is 99% and the half-inhibitory concentration (IC50) fell in the range of 1 to 200 nM. Also, the inhibition at 10 µM in the experiment on DENV-2 strain 16681 was determined as 94%. On to `Cc1c(Nc2ccc3cccc(Cl)c3n2)ccc(OC(C)C)c1C` [Compound 21, 8-chloro-N-(4-isopropoxy-2,3-dimethylphenyl)quinolin-2-amine], for which, in experiment [1], the inhibition at 1 µM stood at 100% and the half-inhibitory concentration (IC50) was in the range of 1 to 200 nM. As to `Cc1cc(OC2CCC2)ccc1Nc1ccc2cccc(Cl)c2n1` [Compound 22, 8-chloro-N-(4-cyclobutoxy-2-methylphenyl)quinolin-2-amine], in experiment [1], the inhibition at 1 µM worked out at 100% and the 50% inhibitory concentration (IC50) is 1 to 200 nM. Further, the inhibition at 10 µM in the experiment on DENV-2 strain 16681 is 82%.

`Cc1cc(OCc2ccccn2)ccc1Nc1ccc2cccc(Cl)c2n1` [Compound 23, 8-chloro-N-(2-methyl-4-(pyridin-2-ylmethoxy)phenyl)quinolin-2-amine]: the inhibition at 1 µM in experiment [1] is 82%.

Regarding `Fc1ccccc1Oc1ccc(Nc2ccc3ccccc3n2)cc1` [Compound 29, N-(4-(2-fluorophenoxy)phenyl)quinolin-2-amine], the inhibition at 1 µM in experiment [1] came to 97%. In the case of `Cc1ccc(Oc2ccc(Nc3ccc4cccc(Cl)c4n3)cc2)cc1` [Compound 31, 8-chloro-N-(4-(p-tolyloxy)phenyl)quinolin-2-amine], the inhibition at 1 µM in experiment [1] was determined as 93%.

For the compound `Fc1ccccc1Oc1ccc(Nc2ccc3cccc(Cl)c3n2)cc1` [Compound 32, 8-chloro-N-(4-(2-fluorophenoxy)phenyl)quinolin-2-amine], the inhibition at 1 µM in experiment [1] is 90%. Take `CCc1cc(Oc2ccccc2F)ccc1Nc1ccc2ccccc2n1` [Compound 39, N-(2-ethyl-4-(2-fluorophenoxy)phenyl)quinolin-2-amine]: in experiment [1], the inhibition at 1 µM is 99% and the IC50 is 1 to 200 nM. The inhibition at 10 µM with DENV-2 strain 16681 was found to be 104%. As to `CCc1cc(OC2CCC2)ccc1Nc1ccc2cccc(Cl)c2n1` [Compound 41, 8-chloro-N-(4-cyclobutoxy-2-ethylphenyl)quinolin-2-amine], the IC50 in experiment [1] lay within 1 to 200 nM.

In experiment [1], `COc1ccc(Oc2ccc(Nc3ccc4ccccc4n3)c(C)c2)c(F)c1` [Compound 45, N-(4-(2-fluoro-4-methoxyphenoxy)-2-methylphenyl)quinolin-2-amine] had an IC50 of 1 to 200 nM. Take `Cc1cc(Oc2ccccc2F)c(C)cc1Nc1ccc2cccc(Cl)c2n1` [Compound 63, 8-chloro-N-(4-(2-fluorophenoxy)-2,5-dimethylphenyl)quinolin-2-amine 2,2,2-trifluoroacetate]: the inhibition at 10 µM in the experiment on DENV-2 strain 16681 worked out at 74%. On to `CCc1cc(Oc2ccc(OC)cc2F)ccc1Nc1ccc2ccccc2n1` [Compound 76, N-(2-ethyl-4-(2-fluoro-4-methoxyphenoxy)phenyl)quinolin-2-amine], for which the inhibition at 10 µM in the experiment on DENV-2 strain 16681 came out at 78%. As to `COc1ccc(Oc2ccc(Nc3ccc4ccccc4n3)cc2)c(F)c1` [Compound 77, N-(4-(2-fluoro-4-methoxyphenoxy)phenyl)quinolin-2-amine], in the experiment on DENV-2 strain 16681, the inhibition at 10 µM was determined as 87%.
